In US9580444B2, “Polycyclic pyrazolinone derivative and herbicide comprising same as effective component thereof” (priority 2013, dated 2017):

Experiments:
Format in all cases: in vivo
[1] = test system: Chenopodium album (common lambsquarters); test: Test Example-4: herbicidal effect by a foliage treatment after weeds are generated under upland field conditions; conditions: 500 g a.i/ha, foliage treatment after emergence, about 14 days after treatment, score 0-5
In short: (§1)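 Weed seeds were sown in upland soil, covered with about 0.5 cm soil and grown 14 days with watering. Diluted wettable powder or emulsifiable concentrate was then sprayed uniformly on foliage at a set dosage in 4000 L water/ha. Weed control and corn injury were scored 0–5 about 14 days later.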

[2] = test system: Abutilon theophrasti (velvetleaf); test: as above; conditions: 500 g a.i/ha, foliage treatment after emergence, about 14 days after treatment, score 0-5
In short: as §1

[3] = test system: Amaranthus viridis (green amaranthus); test: as above; conditions: 500 g a.i/ha, foliage treatment after emergence, about 14 days after treatment, score 0-5
In short: as §1

[4] = test system: corn; test: Test Example-2: phytotoxicity by a soil treatment before weeds are generated under upland field conditions; conditions: application amount 500 g a.i/ha, soil spray treatment before weeds are generated, about 21 days after the treatment, score 0 to 5
Excerpt: (§2) Using the formulation prepared according to the methods described above, the herbicidal effect of the bicyclic pyrazolinone derivative of the invention according to the methods shown in Test Examples below was examined. The herbicidal effect with respect to the test weeds or the phytotoxicity with respect to the test crops was examined according to the following criteria, and evaluated in six stage scores of 0 to 5. A vat having an area of 81 cm^2 and a depth of 3.5 cm was filled with upland soil, then, seeds of Amaranthus viridis (green amaranthus), Chenopodium album (common lambsquarters), and corn were seeded thereto, and the seeds were covered with soil of about 0.5 cm. Next day, a wettable powder or an emulsifiable concentrate of the compound of the present invention prepared according to Formulation Example was diluted, and a spray treatment was uniformly performed on the covered oil so as to be a predetermined dosage. The herbicidal effect with respect to the test weeds and the phytotoxicity with respect to corn about 21 days after the treatment were evaluated according to the evaluation criteria in six stages of 0 to 5 described above.

[5] = test system: Chenopodium album (common lambsquarters); test: Test Example-2: herbicidal effect by a soil treatment before weeds are generated under upland field conditions; conditions: application amount 500 g a.i/ha, soil spray treatment before weeds are generated, about 21 days after the treatment, score 0 to 5
Excerpt: as §2

[6] = test system: Amaranthus viridis (green amaranthus); test: as above; conditions: application amount 500 g a.i/ha, soil spray treatment before weeds are generated, about 21 days after the treatment, score 0 to 5
Excerpt: as §2

[7] = test system: other annual broad leaf weeds (Lindernia procumbens, Rotala indica, Elatine triandra); test: Test Example-1: herbicidal effect by a treatment before weeds are generated under submerged conditions; conditions: 500 g a.i/ha, pre-emergence treatment, about 15 days after treatment, score 0-5
In short: (§3)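 Paddy soil in cups was puddled, seeded with the weeds and kept flooded; compound as wettable powder or emulsifiable concentrate was diluted and applied into the water on the seeding day at a set dosage. Effect was scored about 15 days later on a 0–5 scale.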

[8] = test system: Scirpus juncoides (bulrush); test: as above; conditions: 500 g a.i/ha, pre-emergence treatment, about 15 days after treatment, score 0-5
In short: as §3

[9] = test system: Cyperus difformis (smallflower umbrella plant); test: as above; conditions: 500 g a.i/ha, pre-emergence treatment, about 15 days after treatment, score 0-5
In short: as §3

[10] = test system: Eleocharis acicularis (needle spikerush); test: as above; conditions: 500 g a.i/ha, pre-emergence treatment, about 15 days after treatment, score 0-5
In short: as §3

[11] = test system: Monochoria vaginalis (monochoria); test: as above; conditions: 500 g a.i/ha, pre-emergence treatment, about 15 days after treatment, score 0-5
In short: as §3

[12] = test system: Echinochloa oryzicola (barnyard grass); test: as above; conditions: 500 g a.i/ha, pre-emergence treatment, about 15 days after treatment, score 0-5
In short: as §3

[13] = test system: corn; test: Test Example-4: phytotoxicity by a foliage treatment after weeds are generated under upland field conditions; conditions: 500 g a.i/ha, foliage treatment after emergence, about 14 days after treatment, score 0-5
In short: as §1

Row | Structure (SMILES) | Herbicidal effect Chenopodium album [1] | Herbicidal effect Abutilon theophrast [2] | Herbicidal effect Amaranthus viridis [3] | Phytotoxicity Corn [4] | Herbicidal effect Chenopodium album [5] | Herbicidal effect Amaranthus viridis [6] | Herbicidal effect Broadleaf weed [7] | Herbicidal effect Scirpus juncoides [8] | Herbicidal effect Cyperus difformis [9] | Herbicidal effect Eleocharis acicularis [10] | Herbicidal effect Monochoria vaginalis [11] | Herbicidal effect Echinochloa oryzicola [12] | Phytotoxicity Corn [13]
1 | C=C(C)COc1cc(-c2c(Cl)n3n(c2=O)CCCC3)c(F)cc1Cl [Example 1-214] | 5 (Herbicidal effect/phytotoxicity was 90% or greater) | 5 (Herbicidal effect/phytotoxicity was 90% or greater) | 5 (Herbicidal effect/phytotoxicity was 90% or greater) | 0 (Herbicidal effect/phytotoxicity was 0% to 10%) | 5 (Herbicidal effect/phytotoxicity was 90% or greater) | 5 (Herbicidal effect/phytotoxicity was 90% or greater) | 5 (Herbicidal effect/phytotoxicity was 90% or greater) | 5 (Herbicidal effect/phytotoxicity was 90% or greater) | 5 (Herbicidal effect/phytotoxicity was 90% or greater) | 5 (Herbicidal effect/phytotoxicity was 90% or greater) | 5 (Herbicidal effect/phytotoxicity was 90% or greater) | 5 (Herbicidal effect/phytotoxicity was 90% or greater) | 2 (Herbicidal effect/phytotoxicity was 30% to 50%)
2 | C#CC(C)Oc1cc(-c2c(Cl)n3n(c2=O)CCCC3)c(F)cc1Cl (stereo not drawn) [Example 1-243] | 5 (Herbicidal effect/phytotoxicity was 90% or greater) | 5 (Herbicidal effect/phytotoxicity was 90% or greater) | 5 (Herbicidal effect/phytotoxicity was 90% or greater) | 0 (Herbicidal effect/phytotoxicity was 0% to 10%) | 5 (Herbicidal effect/phytotoxicity was 90% or greater) | 5 (Herbicidal effect/phytotoxicity was 90% or greater) | 5 (Herbicidal effect/phytotoxicity was 90% or greater) | 5 (Herbicidal effect/phytotoxicity was 90% or greater) | 5 (Herbicidal effect/phytotoxicity was 90% or greater) | 5 (Herbicidal effect/phytotoxicity was 90% or greater) | 5 (Herbicidal effect/phytotoxicity was 90% or greater) | 5 (Herbicidal effect/phytotoxicity was 90% or greater) | 1 (Herbicidal effect/phytotoxicity was 10% to 30%)
3 | C#CC(C)Oc1cc(-c2c(Cl)n3n(c2=O)CCOCC3)c(F)cc1Cl (stereo not drawn) [Example 1-245] | 5 (Herbicidal effect/phytotoxicity was 90% or greater) | 5 (Herbicidal effect/phytotoxicity was 90% or greater) | 5 (Herbicidal effect/phytotoxicity was 90% or greater) | 0 (Herbicidal effect/phytotoxicity was 0% to 10%) | 5 (Herbicidal effect/phytotoxicity was 90% or greater) | 5 (Herbicidal effect/phytotoxicity was 90% or greater) | 5 (Herbicidal effect/phytotoxicity was 90% or greater) | 5 (Herbicidal effect/phytotoxicity was 90% or greater) | 5 (Herbicidal effect/phytotoxicity was 90% or greater) | 5 (Herbicidal effect/phytotoxicity was 90% or greater) | 5 (Herbicidal effect/phytotoxicity was 90% or greater) | 5 (Herbicidal effect/phytotoxicity was 90% or greater) | 1 (Herbicidal effect/phytotoxicity was 10% to 30%)
4 | COc1cc(-c2c(Cl)n3n(c2=O)CCCC3)c(Cl)cc1Cl [Example 1-292] | 5 (Herbicidal effect/phytotoxicity was 90% or greater) | 5 (Herbicidal effect/phytotoxicity was 90% or greater) | 5 (Herbicidal effect/phytotoxicity was 90% or greater) | 2 (Herbicidal effect/phytotoxicity was 30% to 50%) | 5 (Herbicidal effect/phytotoxicity was 90% or greater) | 5 (Herbicidal effect/phytotoxicity was 90% or greater) | 5 (Herbicidal effect/phytotoxicity was 90% or greater) | 5 (Herbicidal effect/phytotoxicity was 90% or greater) | 5 (Herbicidal effect/phytotoxicity was 90% or greater) | 5 (Herbicidal effect/phytotoxicity was 90% or greater) | 5 (Herbicidal effect/phytotoxicity was 90% or greater) | 5 (Herbicidal effect/phytotoxicity was 90% or greater) | 1 (Herbicidal effect/phytotoxicity was 10% to 30%)
5 | C#CCOc1cc(-c2c(Cl)n3n(c2=O)CCCC3)c(Cl)cc1Cl [Example 1-302] | 5 (Herbicidal effect/phytotoxicity was 90% or greater) | 5 (Herbicidal effect/phytotoxicity was 90% or greater) | 5 (Herbicidal effect/phytotoxicity was 90% or greater) | 2 (Herbicidal effect/phytotoxicity was 30% to 50%) | 5 (Herbicidal effect/phytotoxicity was 90% or greater) | 5 (Herbicidal effect/phytotoxicity was 90% or greater) | 5 (Herbicidal effect/phytotoxicity was 90% or greater) | 5 (Herbicidal effect/phytotoxicity was 90% or greater) | 5 (Herbicidal effect/phytotoxicity was 90% or greater) | 5 (Herbicidal effect/phytotoxicity was 90% or greater) | 5 (Herbicidal effect/phytotoxicity was 90% or greater) | 5 (Herbicidal effect/phytotoxicity was 90% or greater) | 1 (Herbicidal effect/phytotoxicity was 10% to 30%)
6 | C#CCOc1cc(-c2c(Cl)n3n(c2=O)CCCCC3)c(Cl)cc1Cl [Example 1-303] | 5 (Herbicidal effect/phytotoxicity was 90% or greater) | 5 (Herbicidal effect/phytotoxicity was 90% or greater) | 5 (Herbicidal effect/phytotoxicity was 90% or greater) | 0 (Herbicidal effect/phytotoxicity was 0% to 10%) | 5 (Herbicidal effect/phytotoxicity was 90% or greater) | 5 (Herbicidal effect/phytotoxicity was 90% or greater) | 5 (Herbicidal effect/phytotoxicity was 90% or greater) | 5 (Herbicidal effect/phytotoxicity was 90% or greater) | 5 (Herbicidal effect/phytotoxicity was 90% or greater) | 5 (Herbicidal effect/phytotoxicity was 90% or greater) | 5 (Herbicidal effect/phytotoxicity was 90% or greater) | 5 (Herbicidal effect/phytotoxicity was 90% or greater) | 1 (Herbicidal effect/phytotoxicity was 10% to 30%)
